From EP0693064B1, “HYDROPHOBIC AMINOCOUMARIN DERIVATIVES AND THEIR USE AS PROTEOLYTIC ENZYME SUBSTRATES OR IN THE PREPARATION OF SUCH SUBSTRATES” (priority 1993, dated 1994)
“Also recorded” adds a separate entry of the source.

Key:
[1] = test system: Enterococcus faecalis; assay: Agar test with incorporated fluorogenic substrates (L-alanine aminoaryl peptidase activity), fluorescence of colonies; type: cell-based; conditions: Gram +, substrate in agar 10 to 300 µg/ml, pH 7, overnight at 37°C, UV 365 nm
From the text: (§1) Cette différenciation fait appel à une méthode spécifique de discrimination optique des bactéries à coloration de Gram(+) ou Gram(-), qui est réalisée par l'utilisation de substrats fluorogénes de la L-alanine amino arylpeptidase, activité enzymatique retrouvée principalement dans la paroi des bactéries à coloration de Gram(-), comme il est décrit par Cerny G dans European Journal of Applied Microbiology, 1976, 3, p. 223-225, et 1978 5, p. 113-122.
(§2) Dans cet exemple, on utilise cette méthode de détection des activités enzymatiques bactériennes de la L-alanine aminoaryl peptidase avec les substrats fluorogènes S107, S108 et S109 utilisant les composés 10e, 10c et 10d des exemples 15, 13 et 14. Ces substrats sont incorporés à la gélose selon la méthode énoncée par Manafi & Kneifel dans Journal of Applied Bacteriology 1990, 69, p. 822-827.
(§3) Tous les substrats (composés 10c, 10d et […]) sont incorporés à la gélose à différentes concentrations couvrant une gamme de 10 à 300µg/ml.
(§4) Les composés sont préalablement dissous dans le DMSO et dilués dans de l'eau bi-distillée pour constituer des solutions mères à 800µg/ml, qui peuvent être conservées au moins une semaine à +4°C. Les solutions mères sont diluées ensuite pour délivrer les paliers de concentrations définis à 10, 50, 100, 200 et 300µg/ml.
(§5) Ces substrats sont ajoutés à la gélose à 45°C (une température de 85°C fut tolérée par les substrats), préalablement tamponnée à pH=7 et stérilisée par autoclavage. Les boîtes de gélose sont ensuite ensemencées d'une suspension de colonies, stérilement, à l'öse de platine par stries transversales et selon la méthode des quadrants. L'incubation est poursuivie durant une nuit à 37°C.
(§6) Pour chaque concentration on réalise un banc sans colonies et pour chaque type bactérien, un contrôle de culture sans substrat, de sorte que l'on ne puisse observer que les effets de la présence simultanée des colonies et du substrat incorporé à la gélose.
(§7) La révélation des bactéries Gram(-), rendues fluorescentes par le fluorophore S107, S108 ou S109 libéré est réalisée sous lampe UV à une longueur d'onde d'excitation de 365nm, compatible avec les dispositifs commercialisés. L'émission fluorescente impressionne un papier film 35mm Kodak® Ektar® 1000/30° pour un temps d'exposition au 1/60ème de seconde-process C-41.

[2] = test system: Escherichia coli; assay: as above; type: cell-based; conditions: Gram -, substrate in agar 10 to 300 µg/ml, pH 7, overnight at 37°C, UV 365 nm
From the text: as §1, §2, §3, §4, §5, §6, §7

[3] = test system: bactéries; assay: Toxicity of the substrates towards the bacteria in the agar test; type: cell-based; conditions: substrate in agar 10 to 300 µg/ml, high concentration = 300 µg/ml
Description: as §3, §4, §5, §6

[4] = Diffusion of the released dye in the agar; type: physicochemical; conditions: in the agar (gélose)
Description: as §3, §5
La révélation des bactéries Gram(-), rendues fluorescentes par le fluorophore S107, S108 ou S109 libéré est réalisée sous lampe UV à une longueur d'onde d'excitation de 365nm, compatible avec les dispositifs commercialisés. […]
Les colorants ne diffusent pas dans la gélose, de sorte que la fluorescence n'est émise que par les colonies bactériennes au site de leur croissance. Egalement, les réactions positives (fluorescence claire, lumineuse intense, des colonies Gram négatives sur un fond translucide, estompé bleu/vert pâle, fluorescence d'intensité plus faible pour les bactéries Gram positives) s'observent dès les concentrations faibles à 10µg/ml, ce qui confirme l'utilité de la nature hydrophobe des substrats, de l'absence de diffusion qui en découle et donc de l'efficacité des substrats préparés.

[5] = test system: bactéries Gram(+) et Gram(-); assay: Differentiation of Gram(+) and Gram(-) bacteria with fluorogenic substrates incorporated in agar; type: cell-based; conditions: in agreement with Gram staining
From the text: Exemple 22. Cet exemple illustre l'utilisation des dérivés de coumarines des exemples 13, 14 et 15 pour La différenciation des bactéries Gram(+) et Gram(-)par incorporation de ces dérivés de coumarines et révélation des colonies fluorescentes.
as §1, §2
Tous les substrats (composés 10c, 10d et […]) sont incorporés à la gélose à différentes concentrations couvrant une gamme de 10 à 300µg/ml. […]

**Q.** With `CCCCCCCCCc1cc(=O)oc2cc(NC(=O)[C@H](C)N)ccc12` [S107] as the compound, how does the “Test gélose aux substrats (fluorescence)” value [1] read?
**A.** Fluorescence très faible

**Q.** And the “Test gélose aux substrats (fluorescence)” value [2]?
**A.** Fluorescence moyenne

**Q.** And the Toxicité [3]?
**A.** faible; also recorded: non toxiques; also recorded: Toxicité partielle à forte concentration

**Q.** And the Diffusion [4]?
**A.** non diffusibles; also recorded: Diffusion nulle

**Q.** With `CCCCCCc1cc(=O)oc2cc(NC(=O)[C@H](C)N)ccc12` [S108] as the compound, how does the “Test gélose aux substrats (fluorescence)” value [1] read?
**A.** Fluorescence faible

**Q.** What about the “Test gélose aux substrats (fluorescence)” value [2] of the same compound?
**A.** Fluorescence très importante

**Q.** What about the Toxicité [3] of the same compound?
**A.** non toxiques; also recorded: Toxicité nulle

**Q.** And the Diffusion [4]?
**A.** non diffusibles; also recorded: Diffusion nulle

**Q.** And the “discrimination des bactéries Gram négatives des bactéries Gram positives” value [5]?
**A.** très efficaces
